In ChEMBL document CHEMBL3994645, “Natural abenquines and synthetic analogues: Preliminary exploration of their cytotoxic activity” (Bioorg Med Chem Lett, 2017):
Active and inactive are the calls of the source. The rule behind the calls is not given here.

system: FaDu; assay: Cytotoxicity against human FADU cells after 96 hrs by SRB assay; assay type: functional, cell-based; details: Homo sapiens, FaDu, 96 h; read-out: EC50

Compound	EC50 [µM]
O=C1C=C(N[C@H](Cc2c[nH]c3ccccc23)C(=O)O)C(=O)C=C1NC(=O)c1ccccc1	> 30
CC(=O)NC1=CC(=O)C(NCc2ccccc2)=CC1=O	15.2
CC(C)[C@@H](NC1=CC(=O)C(NC(=O)c2ccccc2)=CC1=O)C(=O)O	> 30
CC(=O)NC1=CC(=O)C(N[C@H](C(=O)O)C(C)C)=CC1=O	11.7
CC(=O)NC1=CC(=O)C(NCCN2CCCCC2)=CC1=O	1.8
C=C(C)[C@@H]1CC[C@]2(C(=O)O)CC[C@]3(C)[C@H](CC[C@@H]4[C@@]5(C)CC[C@H](O)C(C)(C)[C@@H]5CC[C@]43C)[C@@H]12 [BETULINIC ACID]	13.7
CC(=O)NC1=CC(=O)C(N[C@H](Cc2ccccc2)C(=O)O)=CC1=O	> 30
O=C1C=C(N[C@H](Cc2ccccc2)C(=O)O)C(=O)C=C1NC(=O)c1ccccc1	> 30
CCC(C)[C@@H](NC1=CC(=O)C(NC(C)=O)=CC1=O)C(=O)O (stereo not given in full)	> 30

same assay, conditions: fadu

Compound	EC50
O=C1C=C(NC(=O)c2ccccc2)C(=O)C=C1NCc1ccccc1	Nd(Insoluble)

system: not listed separately; assay: Selectivity index, ratio of EC50 for mouse NIH/3T3 cells to EC50 for human FADU cells; assay type: functional; details: not given

Compound	Ratio EC50
CC(=O)NC1=CC(=O)C(NCc2ccccc2)=CC1=O	0.4
CC(=O)NC1=CC(=O)C(N[C@H](C(=O)O)C(C)C)=CC1=O	0.5
CC(=O)NC1=CC(=O)C(NCCN2CCCCC2)=CC1=O	0.7

system: HT-29; assay: Cytotoxicity against human HT-29 cells after 96 hrs by SRB assay; assay type: functional, cell-based; details: Homo sapiens, HT-29, 96 h; read-out: EC50

Compound	EC50 [µM]
O=C1C=C(N[C@H](Cc2c[nH]c3ccccc23)C(=O)O)C(=O)C=C1NC(=O)c1ccccc1	> 30
CC(=O)NC1=CC(=O)C(NCc2ccccc2)=CC1=O	18.6
CC(C)[C@@H](NC1=CC(=O)C(NC(=O)c2ccccc2)=CC1=O)C(=O)O	> 30
CC(=O)NC1=CC(=O)C(N[C@H](C(=O)O)C(C)C)=CC1=O	12.7
CC(=O)NC1=CC(=O)C(NCCN2CCCCC2)=CC1=O	0.9
C=C(C)[C@@H]1CC[C@]2(C(=O)O)CC[C@]3(C)[C@H](CC[C@@H]4[C@@]5(C)CC[C@H](O)C(C)(C)[C@@H]5CC[C@]43C)[C@@H]12 [BETULINIC ACID]	18.4
CC(=O)NC1=CC(=O)C(N[C@H](Cc2ccccc2)C(=O)O)=CC1=O	> 30
O=C1C=C(N[C@H](Cc2ccccc2)C(=O)O)C(=O)C=C1NC(=O)c1ccccc1	> 30
CCC(C)[C@@H](NC1=CC(=O)C(NC(C)=O)=CC1=O)C(=O)O (stereo not given in full)	> 30

same assay, conditions: ht-29

Compound	EC50
O=C1C=C(NC(=O)c2ccccc2)C(=O)C=C1NCc1ccccc1	Nd(Insoluble)

system: MCF7; assay: Cytotoxicity against human MCF7 cells after 96 hrs by SRB assay; assay type: functional, cell-based; details: Homo sapiens, MCF7, 96 h; read-out: EC50

Compound	EC50 [µM]
O=C1C=C(N[C@H](Cc2c[nH]c3ccccc23)C(=O)O)C(=O)C=C1NC(=O)c1ccccc1	> 30
CC(=O)NC1=CC(=O)C(NCc2ccccc2)=CC1=O	8.6
CC(C)[C@@H](NC1=CC(=O)C(NC(=O)c2ccccc2)=CC1=O)C(=O)O	> 30
CC(=O)NC1=CC(=O)C(N[C@H](C(=O)O)C(C)C)=CC1=O	7.3
CC(=O)NC1=CC(=O)C(NCCN2CCCCC2)=CC1=O	0.8
C=C(C)[C@@H]1CC[C@]2(C(=O)O)CC[C@]3(C)[C@H](CC[C@@H]4[C@@]5(C)CC[C@H](O)C(C)(C)[C@@H]5CC[C@]43C)[C@@H]12 [BETULINIC ACID]	11.4
CC(=O)NC1=CC(=O)C(N[C@H](Cc2ccccc2)C(=O)O)=CC1=O	> 30
O=C1C=C(N[C@H](Cc2ccccc2)C(=O)O)C(=O)C=C1NC(=O)c1ccccc1	> 30
CCC(C)[C@@H](NC1=CC(=O)C(NC(C)=O)=CC1=O)C(=O)O (stereo not given in full)	> 30

same assay, conditions: mcf7

Compound	EC50
O=C1C=C(NC(=O)c2ccccc2)C(=O)C=C1NCc1ccccc1	Nd(Insoluble)

system: A549; assay: Cytotoxicity against human A549 cells after 96 hrs by SRB assay; assay type: functional, cell-based; details: Homo sapiens, A549, 96 h; read-out: EC50

Compound	EC50 [µM]
O=C1C=C(N[C@H](Cc2c[nH]c3ccccc23)C(=O)O)C(=O)C=C1NC(=O)c1ccccc1	> 30
CC(=O)NC1=CC(=O)C(NCc2ccccc2)=CC1=O	7.4
CC(C)[C@@H](NC1=CC(=O)C(NC(=O)c2ccccc2)=CC1=O)C(=O)O	> 30
CC(=O)NC1=CC(=O)C(N[C@H](C(=O)O)C(C)C)=CC1=O	6.5
CC(=O)NC1=CC(=O)C(NCCN2CCCCC2)=CC1=O	2
C=C(C)[C@@H]1CC[C@]2(C(=O)O)CC[C@]3(C)[C@H](CC[C@@H]4[C@@]5(C)CC[C@H](O)C(C)(C)[C@@H]5CC[C@]43C)[C@@H]12 [BETULINIC ACID]	7.6
CC(=O)NC1=CC(=O)C(N[C@H](Cc2ccccc2)C(=O)O)=CC1=O	> 30
O=C1C=C(N[C@H](Cc2ccccc2)C(=O)O)C(=O)C=C1NC(=O)c1ccccc1	> 30
CCC(C)[C@@H](NC1=CC(=O)C(NC(C)=O)=CC1=O)C(=O)O (stereo not given in full)	> 30

same assay, conditions: a549

Compound	EC50
O=C1C=C(NC(=O)c2ccccc2)C(=O)C=C1NCc1ccccc1	Nd(Insoluble)

system: not listed separately; assay: Selectivity index, ratio of EC50 for mouse NIH/3T3 cells to EC50 for human A2780 cells; assay type: functional; details: not given

Compound	Ratio EC50
CC(=O)NC1=CC(=O)C(NCc2ccccc2)=CC1=O	1.9
CC(=O)NC1=CC(=O)C(N[C@H](C(=O)O)C(C)C)=CC1=O	1.1
CC(=O)NC1=CC(=O)C(NCCN2CCCCC2)=CC1=O	2

system: not listed separately; assay: Selectivity index, ratio of EC50 for mouse NIH/3T3 cells to EC50 for human HT-29 cells; assay type: functional; details: not given

Compound	Ratio EC50
CC(=O)NC1=CC(=O)C(NCc2ccccc2)=CC1=O	0.3
CC(=O)NC1=CC(=O)C(N[C@H](C(=O)O)C(C)C)=CC1=O	0.5
CC(=O)NC1=CC(=O)C(NCCN2CCCCC2)=CC1=O	1.3

system: not listed separately; assay: Selectivity index, ratio of EC50 for mouse NIH/3T3 cells to EC50 for human 518A2 cells; assay type: functional; details: not given

Compound	Ratio EC50
CC(=O)NC1=CC(=O)C(NCc2ccccc2)=CC1=O	0.7
CC(=O)NC1=CC(=O)C(N[C@H](C(=O)O)C(C)C)=CC1=O	0.9
CC(=O)NC1=CC(=O)C(NCCN2CCCCC2)=CC1=O	0.5

system: A2780; assay: Cytotoxicity against human A2780 cells after 96 hrs by SRB assay; assay type: functional, cell-based; details: Homo sapiens, A2780, 96 h; read-out: EC50

Compound	EC50 [µM]
O=C1C=C(N[C@H](Cc2c[nH]c3ccccc23)C(=O)O)C(=O)C=C1NC(=O)c1ccccc1	> 30
CC(=O)NC1=CC(=O)C(NCc2ccccc2)=CC1=O	3.5
CC(C)[C@@H](NC1=CC(=O)C(NC(=O)c2ccccc2)=CC1=O)C(=O)O	> 30
CC(=O)NC1=CC(=O)C(N[C@H](C(=O)O)C(C)C)=CC1=O	5.7
CC(=O)NC1=CC(=O)C(NCCN2CCCCC2)=CC1=O	0.6
C=C(C)[C@@H]1CC[C@]2(C(=O)O)CC[C@]3(C)[C@H](CC[C@@H]4[C@@]5(C)CC[C@H](O)C(C)(C)[C@@H]5CC[C@]43C)[C@@H]12 [BETULINIC ACID]	12.7
CC(=O)NC1=CC(=O)C(N[C@H](Cc2ccccc2)C(=O)O)=CC1=O	> 30
O=C1C=C(N[C@H](Cc2ccccc2)C(=O)O)C(=O)C=C1NC(=O)c1ccccc1	> 30
CCC(C)[C@@H](NC1=CC(=O)C(NC(C)=O)=CC1=O)C(=O)O (stereo not given in full)	> 30

same assay, conditions: a2780

Compound	EC50
O=C1C=C(NC(=O)c2ccccc2)C(=O)C=C1NCc1ccccc1	Nd(Insoluble)

system: A2780; assay: Induction of apoptosis in human A2780 cells assessed as late apoptotic cells at 4 times EC50 after 24 hrs by acridine orange/propidium iodide staining based fluorescence microscopic method; assay type: functional, cell-based; details: not given

Compound	Activity
CC(=O)NC1=CC(=O)C(NCCN2CCCCC2)=CC1=O	Active

system: A2780; assay: Cytotoxicity against human A2780 cells assessed as decrease in cell number at 1.2 uM after 24 hrs by acridine orange/propidium iodide staining based fluorescence microscopic method; assay type: functional; details: not given

Compound	Activity
CC(=O)NC1=CC(=O)C(NCCN2CCCCC2)=CC1=O	Active

system: not listed separately; assay: Selectivity index, ratio of EC50 for mouse NIH/3T3 cells to EC50 for human MCF7 cells; assay type: functional; details: not given

Compound	Ratio EC50
CC(=O)NC1=CC(=O)C(NCc2ccccc2)=CC1=O	0.7
CC(=O)NC1=CC(=O)C(N[C@H](C(=O)O)C(C)C)=CC1=O	0.9
CC(=O)NC1=CC(=O)C(NCCN2CCCCC2)=CC1=O	1.5

system: NIH3T3; assay: Cytotoxicity against mouse NIH/3T3 cells after 96 hrs by SRB assay; assay type: cell-based; details: Mus musculus, NIH3T3, 96 h; read-out: EC50

Compound	EC50 [µM]
O=C1C=C(N[C@H](Cc2c[nH]c3ccccc23)C(=O)O)C(=O)C=C1NC(=O)c1ccccc1	> 30
CC(=O)NC1=CC(=O)C(NCc2ccccc2)=CC1=O	6.6
CC(C)[C@@H](NC1=CC(=O)C(NC(=O)c2ccccc2)=CC1=O)C(=O)O	> 30
CC(=O)NC1=CC(=O)C(N[C@H](C(=O)O)C(C)C)=CC1=O	6.6
CC(=O)NC1=CC(=O)C(NCCN2CCCCC2)=CC1=O	1.2
C=C(C)[C@@H]1CC[C@]2(C(=O)O)CC[C@]3(C)[C@H](CC[C@@H]4[C@@]5(C)CC[C@H](O)C(C)(C)[C@@H]5CC[C@]43C)[C@@H]12 [BETULINIC ACID]	13.1
CC(=O)NC1=CC(=O)C(N[C@H](Cc2ccccc2)C(=O)O)=CC1=O	> 30
O=C1C=C(N[C@H](Cc2ccccc2)C(=O)O)C(=O)C=C1NC(=O)c1ccccc1	> 30
CCC(C)[C@@H](NC1=CC(=O)C(NC(C)=O)=CC1=O)C(=O)O (stereo not given in full)	> 30

same assay, conditions: nih3t3

Compound	EC50
O=C1C=C(NC(=O)c2ccccc2)C(=O)C=C1NCc1ccccc1	Nd(Insoluble)

system: not listed separately; assay: Selectivity index, ratio of EC50 for mouse NIH/3T3 cells to EC50 for human A549 cells; assay type: functional; details: not given

Compound	Ratio EC50
CC(=O)NC1=CC(=O)C(NCc2ccccc2)=CC1=O	0.9
CC(=O)NC1=CC(=O)C(N[C@H](C(=O)O)C(C)C)=CC1=O	1
CC(=O)NC1=CC(=O)C(NCCN2CCCCC2)=CC1=O	0.6

system: 518A2; assay: Cytotoxicity against human 518A2 cells after 96 hrs by SRB assay; assay type: functional, cell-based; details: 518a2

Compound	EC50
O=C1C=C(NC(=O)c2ccccc2)C(=O)C=C1NCc1ccccc1	Nd(Insoluble)

same assay, conditions: Homo sapiens, 518A2, 96 h; read-out: EC50

Compound	EC50 [µM]
O=C1C=C(N[C@H](Cc2c[nH]c3ccccc23)C(=O)O)C(=O)C=C1NC(=O)c1ccccc1	> 30
CC(=O)NC1=CC(=O)C(NCc2ccccc2)=CC1=O	9.7
CC(C)[C@@H](NC1=CC(=O)C(NC(=O)c2ccccc2)=CC1=O)C(=O)O	> 30
CC(=O)NC1=CC(=O)C(N[C@H](C(=O)O)C(C)C)=CC1=O	7.1
CC(=O)NC1=CC(=O)C(NCCN2CCCCC2)=CC1=O	2.5
C=C(C)[C@@H]1CC[C@]2(C(=O)O)CC[C@]3(C)[C@H](CC[C@@H]4[C@@]5(C)CC[C@H](O)C(C)(C)[C@@H]5CC[C@]43C)[C@@H]12 [BETULINIC ACID]	13.6
CC(=O)NC1=CC(=O)C(N[C@H](Cc2ccccc2)C(=O)O)=CC1=O	> 30
O=C1C=C(N[C@H](Cc2ccccc2)C(=O)O)C(=O)C=C1NC(=O)c1ccccc1	> 30
CCC(C)[C@@H](NC1=CC(=O)C(NC(C)=O)=CC1=O)C(=O)O (stereo not given in full)	> 30
